For the test, the target named is T1, PI3Kδ (recombinant GST-tagged PIK3CD co-expressed with PIK3R1, p85α) (Homo sapiens, UniProt O00329).
T1 construct: The protein is full length and co-expressed with untagged PIK3R1; GST; purchased Invitrogen PV5274
Kind of test: PI3Kδ inhibition, modified PIK3CD Adapta TR-FRET kinase assay. The class given is biochemical. To be noted: 2 μM ATP, 50 μM PIP2, 1 hour at room temperature, pIC50 = -log(IC50 in M). Here is the method: The activity of compounds as PI3Kδ inhibitors may be determined by a variety of methods, including in vitro and in vivo methods. The following in vitro assay measures a test compound's ability to inhibit PI3Kδ-mediated phosphorylation of PIP2 and ATP.
Recombinant GST-tagged PIK3CD is purchased from Invitrogen (Part Number: PV5274). The protein is full length and co-expressed with untagged PIK3R1, phosphoinositide-3-kinase regulatory subunit 1 (p85α). The protein is stored at −20° C. in 50 mM TRIS (pH 7.5), 150 mM NaCl, 0.5 mM EDTA, 0.02% Triton® X-100, 2 mM DTT, and 50% glycerol.
A modified PIK3CD Adapta® assay (Invitrogen, Carlsbad, Calif.) is used to measure PI3Kδ inhibition of the example compounds. The assay has two phases. In the first phase, kinase reaction components, which include the enzyme (PIK3CD), substrates (PIP2, ATP), test compound (inhibitor), and assay buffer are added to each well, and the reaction is allowed to incubate for a pre-determined period of time. After reaction, a detection solution composed of a Eu (europium)-labeled anti-ADP antibody, Alexa Fluor® 647-labeled ADP tracer, and EDTA (to stop the kinase reaction) is added to each assay well. In this second phase, ADP formed by the kinase reaction displaces the Alexa Fluor® 647-labeled ADP tracer from the antibody, resulting in a decrease in time-resolved fluorescence resonance energy transfer (TR-FRET) signal. In the presence of the inhibitor, the amount of ADP formed by the kinase reaction is reduced, and the resulting intact antibody-tracer interaction maintains a high TR-FRET signal.
The assay uses black Greiner® 384-well plates (784076). The reaction buffer contains 50 mM Hepes (pH 7.5), 3 mM MgCl2, 1 mM EGTA, 100 mM NaCl, 0.03% CHAPS; 2 mM DTT is added fresh prior to each experiment. Enzyme (4 μL, estimated 1.5 nM in buffer) is first added to the wells of the plate. Next, test compounds (2 μL) from a source plate (5% dilution plate) are introduced into the wells. The final DMSO concentration in each assay well is 1%. The dilution plate contains 5% DMSO in the bottom half of columns 23 and 24, which serve as negative (non-inhibited) controls; the top half contains a known inhibitor concentration (positive control) that gives >98% inhibition of the kinase reaction. Other wells contain test compounds serially diluted across the plate 11 times for a total of 12 data points. The kinase reactions are carried out at room temperature and are initiated by the addition of 4 μL of solution containing 2 μM ATP and 50 μM PIP2. Each reaction is stopped after 1 hour±10 minutes via addition of 10 μL stop solution, which contains a final assay concentration of 3 nM Alexa Fluor® 647-labeled ADP tracer, 2 nM Eu-anti-ADP Antibody, and 10 mM EDTA. After allowing the solutions to equilibrate for 30±10 minutes, a PHERAstar plate reader is used to excite the Eu donor (at 337 nm) and to detect emission from the Alexa Fluor® 647 at 665 nm. This emission signal is referenced or “ratioed” to the emission from Eu at 620 nm. The emission ratio (665 nm/620 nm) from each well is collected and converted to percent conversion using a standard curve for the assay conditions: % conversion=B*(C+A−emission ratio)/(emission ratio−C), where “A” and “C” are the maximum and minimum values of the emission ratio obtained from the standard curve of emission ratio vs. % conversion (ATP-ADP); “B” is the emission ratio corresponding to the % conversion at the EC50 value for the ADP Tracer—Eu anti-ADP antibody complex. The percent inhibition for a given inhibitor concentration is computed from % conversion for the reaction and for the positive and negative controls. Corresponding IC50 values are calculated by non-linear curve fitting of the compound concentrations and values of percent inhibition to the standard IC50 equation and are reported as pIC50, i.e., −log(IC50), where IC50 is molar concentration at 50% inhibition.

pIC50: −log10 of the molar value. Where only a bound is given, the exact number is not on record here.

T1 sequence (O00329 whole entry): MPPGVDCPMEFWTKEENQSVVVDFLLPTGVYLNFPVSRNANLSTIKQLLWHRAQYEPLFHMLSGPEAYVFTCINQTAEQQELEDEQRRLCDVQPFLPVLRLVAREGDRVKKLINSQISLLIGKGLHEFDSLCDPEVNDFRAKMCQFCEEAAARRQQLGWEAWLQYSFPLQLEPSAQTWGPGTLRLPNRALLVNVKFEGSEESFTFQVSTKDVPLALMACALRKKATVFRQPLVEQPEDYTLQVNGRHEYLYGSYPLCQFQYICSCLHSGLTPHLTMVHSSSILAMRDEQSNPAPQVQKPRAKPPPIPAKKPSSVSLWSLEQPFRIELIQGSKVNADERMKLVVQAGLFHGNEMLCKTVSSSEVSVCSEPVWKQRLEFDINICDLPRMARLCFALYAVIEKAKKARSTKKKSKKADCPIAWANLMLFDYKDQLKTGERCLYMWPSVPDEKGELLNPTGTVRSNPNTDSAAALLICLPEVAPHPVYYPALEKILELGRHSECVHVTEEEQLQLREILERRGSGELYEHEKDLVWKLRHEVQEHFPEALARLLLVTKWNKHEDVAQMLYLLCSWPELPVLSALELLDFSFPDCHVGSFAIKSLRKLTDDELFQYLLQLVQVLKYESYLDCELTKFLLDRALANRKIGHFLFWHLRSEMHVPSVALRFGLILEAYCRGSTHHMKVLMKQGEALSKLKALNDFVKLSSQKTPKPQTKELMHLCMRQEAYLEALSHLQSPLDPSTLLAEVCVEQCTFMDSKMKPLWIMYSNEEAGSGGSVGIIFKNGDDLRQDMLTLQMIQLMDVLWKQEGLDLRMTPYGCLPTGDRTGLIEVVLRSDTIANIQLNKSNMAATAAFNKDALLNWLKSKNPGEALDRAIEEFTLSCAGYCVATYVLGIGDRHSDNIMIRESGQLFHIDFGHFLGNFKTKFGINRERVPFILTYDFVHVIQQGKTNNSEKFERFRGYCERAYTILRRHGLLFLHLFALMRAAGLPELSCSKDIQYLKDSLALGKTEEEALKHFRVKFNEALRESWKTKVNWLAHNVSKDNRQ
T1 sequence (P27986 whole entry partner): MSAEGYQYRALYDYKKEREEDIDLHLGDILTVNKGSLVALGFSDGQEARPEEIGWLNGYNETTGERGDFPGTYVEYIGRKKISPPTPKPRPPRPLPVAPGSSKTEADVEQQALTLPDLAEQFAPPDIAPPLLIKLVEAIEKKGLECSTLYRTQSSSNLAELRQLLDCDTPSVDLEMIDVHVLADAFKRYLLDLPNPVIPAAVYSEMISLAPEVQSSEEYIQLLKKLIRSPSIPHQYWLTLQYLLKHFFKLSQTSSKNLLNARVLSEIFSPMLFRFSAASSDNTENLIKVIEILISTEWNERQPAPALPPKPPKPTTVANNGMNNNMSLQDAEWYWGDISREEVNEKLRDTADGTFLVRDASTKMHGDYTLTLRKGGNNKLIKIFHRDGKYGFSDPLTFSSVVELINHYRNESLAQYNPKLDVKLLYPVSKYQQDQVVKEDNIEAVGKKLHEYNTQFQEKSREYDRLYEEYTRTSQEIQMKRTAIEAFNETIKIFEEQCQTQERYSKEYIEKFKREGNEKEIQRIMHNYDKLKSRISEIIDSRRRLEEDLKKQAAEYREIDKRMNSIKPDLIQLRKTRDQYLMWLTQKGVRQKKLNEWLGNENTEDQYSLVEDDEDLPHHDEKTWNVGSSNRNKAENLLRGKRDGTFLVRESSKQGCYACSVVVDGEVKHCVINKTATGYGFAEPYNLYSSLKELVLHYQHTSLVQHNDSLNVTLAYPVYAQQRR

For `Cc1nc(N)nc(N[C@@H](C)c2nc3ccn(C)c3cc2-c2ccnc(O)c2)c1C#N` [Example 23, (S)-2-Amino-4-((1-(6-(2-hydroxypyridin-4-yl)-1-methyl-1H-pyrrolo[3,2-b]pyridin-5-yl)ethyl)amino)-6-methylpyrimidine-5-carbonitrile], the pIC50 was above 9.00.

The values are drawn from patent US8835420B2, “Azaindole derivatives” (Takeda Pharmaceutical Company Limited, priority 2012, dated 2014).
